Residue numbers refer to the chain shown, from its start. Entries after “also recorded” stand apart in the source; their conditions may differ. Where two headings read alike, the source gives them in different places. *1 amine or outer side, *2 acyl side, *3 side chain or, on linkers, in order; H or OH if unused. Where no end group is shown, it is not given here. The star is where a group is joined. AMC = Cc1cc(=O)oc2cc(N*)ccc12; Suc = O=C(CCC(=O)[*:2])[*:1]
Key:
Sirt5 [1] = biological target: T1, Sirt5 (Homo sapiens, UniProt Q9NXA8); experiment: Sirt5 inhibition IC50 (desuccinylase, HPLC-based assay); assay type: biochemical; conditions: Sirt5 1 μM, 0.3 mM acyl peptide, 0.5 mM NAD; * = no inhibition at 100 μM
T1 construct: made in house
T1 sequence (Q9NXA8 37-310): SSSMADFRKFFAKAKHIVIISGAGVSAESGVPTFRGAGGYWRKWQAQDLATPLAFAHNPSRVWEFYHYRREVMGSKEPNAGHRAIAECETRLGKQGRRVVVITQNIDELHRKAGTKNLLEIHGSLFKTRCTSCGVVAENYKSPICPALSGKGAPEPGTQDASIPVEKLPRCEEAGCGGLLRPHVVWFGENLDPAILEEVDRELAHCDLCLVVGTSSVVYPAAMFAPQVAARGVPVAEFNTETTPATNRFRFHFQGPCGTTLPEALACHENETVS
Procedure: (§1) All assays were carried out under identical enzyme (1 μM) and substrate (0.3 mM acyl peptide, 0.5 mM NAD) concentrations.

Sirt1 [2] = biological target: T2, Sirt1 (Homo sapiens, UniProt Q96EB6); conditions: Sirt1, literature value; read-out: IC50, reported value in parentheses; cited from earlier work
T2 sequence (Q96EB6 1-747): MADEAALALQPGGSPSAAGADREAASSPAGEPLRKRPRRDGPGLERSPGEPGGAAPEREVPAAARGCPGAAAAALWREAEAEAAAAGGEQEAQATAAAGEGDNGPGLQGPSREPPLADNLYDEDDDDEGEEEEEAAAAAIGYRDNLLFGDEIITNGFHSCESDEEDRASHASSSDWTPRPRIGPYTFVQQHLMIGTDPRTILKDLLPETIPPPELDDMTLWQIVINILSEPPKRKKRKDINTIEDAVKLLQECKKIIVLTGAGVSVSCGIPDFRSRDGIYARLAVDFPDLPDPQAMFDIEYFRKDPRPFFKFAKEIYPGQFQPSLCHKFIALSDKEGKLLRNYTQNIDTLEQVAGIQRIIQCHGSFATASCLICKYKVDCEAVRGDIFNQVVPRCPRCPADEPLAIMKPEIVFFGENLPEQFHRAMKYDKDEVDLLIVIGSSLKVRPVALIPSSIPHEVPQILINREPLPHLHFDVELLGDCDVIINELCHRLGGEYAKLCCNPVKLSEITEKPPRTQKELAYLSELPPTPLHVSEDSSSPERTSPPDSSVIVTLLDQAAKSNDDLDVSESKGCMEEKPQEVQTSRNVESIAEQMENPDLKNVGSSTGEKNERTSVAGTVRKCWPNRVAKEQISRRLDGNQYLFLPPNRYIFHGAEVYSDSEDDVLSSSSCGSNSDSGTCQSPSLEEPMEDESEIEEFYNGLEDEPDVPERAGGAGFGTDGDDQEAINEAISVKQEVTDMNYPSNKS

Sirt2 [3] = biological target: T3, Sirt2 (Homo sapiens, UniProt Q8IXJ6); experiment: Secondary screening using Sirt2 and ISGASE(AcK)-AMC fluorogenic assay; assay type: biochemical; conditions: inhibitor 30 μM, ISGASE(AcK)-AMC 0.3 mM, Sirt2 1 μM, FIG. 15
T3 construct: made in house
T3 sequence (Q8IXJ6 1-389): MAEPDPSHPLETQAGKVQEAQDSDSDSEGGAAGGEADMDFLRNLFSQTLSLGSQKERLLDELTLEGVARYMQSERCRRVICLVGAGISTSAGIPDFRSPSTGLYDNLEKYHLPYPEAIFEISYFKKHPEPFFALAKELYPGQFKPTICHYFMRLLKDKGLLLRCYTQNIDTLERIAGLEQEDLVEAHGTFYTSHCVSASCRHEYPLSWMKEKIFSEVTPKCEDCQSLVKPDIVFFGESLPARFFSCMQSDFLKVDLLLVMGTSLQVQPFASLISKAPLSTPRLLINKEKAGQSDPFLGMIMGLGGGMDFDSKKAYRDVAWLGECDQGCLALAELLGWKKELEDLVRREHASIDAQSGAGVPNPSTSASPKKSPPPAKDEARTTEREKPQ
Procedure: SirT2 (1 μM) was incubated with ISGASE(AcK)-AMC (SEQ ID NO:13) peptide (0.3 mM), inhibitors (30 μM), NAD (0.5 mM) in Tris-HCl buffer (pH 7.4, 20 mM) containing dithiothreitol (DTT, 1 mM) in a 60 μL reaction for 4 hours at 37° C. Then trypsin (1 μg) and CaCl2 (1 mM) were added and the reaction were incubated for 3 hours at 37° C. The reactions were diluted with 50 μL water. The mixture (100 μL) was transferred to 96 well plate and the fluorescence was recorded by BIO-TEK® Synergy HT (Optics Position: Top, Sensitivity: 50, Excitation at the wavelength of 360 nm and Emission at the wavelength of 460 nm).

Sirt2 [4] = biological target: T3, Sirt2; experiment: Sirt2 inhibition IC50; assay type: biochemical
Procedure: as §1

Sirt3 = biological target: T4, Sirt3 (Homo sapiens, UniProt Q9NTG7); experiment: Sirt3 inhibition IC50; assay type: biochemical
T4 construct: made in house
T4 sequence (Q9NTG7 1-399): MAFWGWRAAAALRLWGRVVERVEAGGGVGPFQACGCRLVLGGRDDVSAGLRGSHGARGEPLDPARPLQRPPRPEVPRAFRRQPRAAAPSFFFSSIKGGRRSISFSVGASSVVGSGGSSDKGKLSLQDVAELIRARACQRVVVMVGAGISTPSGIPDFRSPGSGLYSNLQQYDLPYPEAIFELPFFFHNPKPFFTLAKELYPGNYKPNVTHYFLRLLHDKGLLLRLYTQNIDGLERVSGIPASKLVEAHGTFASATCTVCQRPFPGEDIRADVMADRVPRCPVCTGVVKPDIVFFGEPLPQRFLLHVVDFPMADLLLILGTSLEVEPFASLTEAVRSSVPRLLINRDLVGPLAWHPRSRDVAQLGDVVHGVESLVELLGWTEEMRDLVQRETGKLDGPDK
Procedure: as §1

Sirt5 [5] = biological target: T1, Sirt5; experiment: Screening for Sirt5 inhibitors with ISGASE(SuK)-AMC in the fluorogenic assay; assay type: biochemical; conditions: compound 30 μM, ISGASE(SuK)-AMC 0.3 mM, Sirt5 1 μM, FIG. 13
Procedure: SirT5 (1 μM) was incubated with ISGASE(SuK)-AMC (SEQ ID NO:11) peptide (0.3 mM), NAD (0.5 mM) in Tris-HCl buffer (pH 7.4, 20 mM) with DTT (1 mM) in 60 μL reactions for 4 hours at 37° C. Then trypsin (1 μg) and CaCl2 (1 mM) were added and the reactions were incubated for 3 hours at 37° C. The reactions were the diluted with 50 μL water. The mixture (100 μL) was transferred to 96 well plate and the fluorescence was recorded by BIO-TEK® Synergy HT plate reader (Optics Position: Top, Sensitivity: 50, Excitation at the wavelength of 360 nm and Emission at the wavelength of 460 nm).
The procedure was the same as described above (Assaying Sirt5 activity on ISGASE(SuK)-AMC in the fluorogenic assay), except that different compounds (30 μM) were included in the reactions. In the desuccinylation step, Sirt5 was added last to initiate the desuccinylation reaction.

Sirt1 [6] = biological target: T2, Sirt1; experiment: Sirt1 inhibition IC50; assay type: biochemical; parameters: made in house
Procedure: as §1

Sirt5 [7] = biological target: T1, Sirt5; experiment: Deacylation kinetics (kcat, Km) by HPLC, Sirt5; assay type: biochemical; conditions: wild-type Sirt5, Table 3
Procedure: (§2) For determination of kcat and Km, human Sirt1, Sirt2, Sirt3 and Sirt5 were measured by detecting the deacylated peptide from H3K9 acyl peptides using HPLC. Purified Sirtuin was incubated with 1.0 mM of NAD in 20 mM Tris-HCl buffer (pH 7.5) containing acyl peptides (0-750 μM) and 1 mM DTT in 60 μL reactions at 37° C. The reactions were stopped with 100 mM HCl and 160 mM acetic acid, analyzed by HPLC with a reverse phase C18 column (250×4.6 mm, 90 A, 10 μm, GraceVydac, Southborough, Mass.), with a linear gradient of 0% to 20% B for 10 min (1 mL/min). […] The kcat and Km values were obtained by curve-fitting the Vinitial/[E] versus [S] plot using KaleidaGraph. For Sirt5 R105M, the observed second order rate constant, kobs (rate/([Sirtuin][NAD])) was detected instead of kcat and Km because of the very weak deacylation activity. The experiments were done in duplicate.

Sirt5 Y102F = biological target: T5, Sirt5 Y102F (Homo sapiens, UniProt Q9NXA8, Y102F); experiment: Deacylation kinetics by HPLC, mutant Sirt5 Y102F; assay type: biochemical; conditions: read-out: Km for peptide
T5 sequence (Q9NXA8 37-310 Y102F): T1 sequence (Q9NXA8 37-310) with Y66F
Procedure: as §2

Sirt5 H158Y = biological target: T6, Sirt5 H158Y (Homo sapiens, UniProt Q9NXA8, H158Y); experiment: Deacylation kinetics by HPLC, mutant Sirt5 H158Y; assay type: biochemical; conditions: read-out: Km for peptide
T6 sequence (Q9NXA8 37-310 H158Y): T1 sequence (Q9NXA8 37-310) with H122Y
Procedure: as §2

Sirt5 R105M = biological target: T7, Sirt5 R105M (Homo sapiens, UniProt Q9NXA8, R105M); experiment: Deacylation kinetics by HPLC, mutant Sirt5 R105M; assay type: biochemical; conditions: read-out: Km for peptide
T7 sequence (Q9NXA8 37-310 R105M): T1 sequence (Q9NXA8 37-310) with R69M
Procedure: For determination of kcat and Km, human Sirt1, Sirt2, Sirt3 and Sirt5 were measured by detecting the deacylated peptide from H3K9 acyl peptides using HPLC. […] The reactions were stopped with 100 mM HCl and 160 mM acetic acid, analyzed by HPLC with a reverse phase C18 column (250×4.6 mm, 90 A, 10 μm, GraceVydac, Southborough, Mass.), with a linear gradient of 0% to 20% B for 10 min (1 mL/min). […] The kcat and Km values were obtained by curve-fitting the Vinitial/[E] versus [S] plot using KaleidaGraph. […] The experiments were done in duplicate.

Sirt5 [8] = biological target: T1, Sirt5; experiment: Sirt5 fluorogenic assay with KQTAR(SuK)-AMC; assay type: biochemical; conditions: reaction with Sirt5
Procedure: SirT5 (1 μM) was incubated with KQTAR(SuK)-AMC (SEQ ID NO: 10) peptide (0.3 mM), NAD (0.5 mM) in Tris-HCl buffer (pH 7.4, 20 mM) containing dithiothreitol (DTT, 1 mM) in a 60 μL reaction for 16 hours at 37° C. Then trypsin (1 μg) and CaCl2 (1 mM) were added and the reaction were incubated for 14 hours at 37° C. The reactions were diluted with 50 μL water. The mixture (100 μL) was transferred to 96 well plate and the fluorescence was recorded by BIO-TEK® Synergy HT plate reader (Optics Position: Top, Sensitivity: 50, Excitation at the wavelength of 360 nm and Emission at the wavelength of 460 nm).

Sirt5 [9] = biological target: T1, Sirt5; experiment: Sirt5-catalyzed desuccinylation of AMC-succinyl peptides monitored by HPLC; assay type: biochemical
Procedure: […] The reactions were stopped with 200 mM HCl and 320 mM acetic acid, analyzed by HPLC with a reverse phase C18 column (250×4.6 mm, 90 A, 10 μm, GraceVydac, Southborough, Mass.), with a linear gradient of 0% to 20% B for 10 min (1 mL/min).

## N#C/C(=C\c1ccc(-c2cc(Cl)ccc2Cl)o1)C(=O)Nc1cccc2ncccc12 [AGK2]
Sirt5 [1]
  IC50: 120 µM
Sirt1 [2]
  IC50: > 40 µM

## C[C@H](NC(=O)[C@H](CCCCN)NC(=O)CNC(=O)CNC(=O)[C@@H](NC(=O)[C@H](CO)NC(=O)[C@H](CCCCNC(=S)CCC(=O)O)NC(=O)[C@H](CCCNC(=N)N)NC(=O)[C@H](C)NC(=O)[C@@H](NC(=O)[C@H](CCC(N)=O)NC(=O)[C@@H](N)CCCCN)[C@@H](C)O)[C@@H](C)O)C(=O)O [H3K9 TSu, KQTAR(TSuK)STGGKA]
Sirt2 [3]
  fluorescence produced by Sirt2 in fluorogenic assay: did not significantly decrease the fluorescence
Sirt2 [4]; Sirt2 1 μM, 0.3 mM acyl peptide, 0.5 mM NAD, * = no inhibition at 100 μM
  IC50: > 100 µM
Sirt2 [4]; at 100 μM concentration
  inhibition of Sirt2: did not inhibit
Sirt5 [1]
  IC50: 5 µM
Sirt3; Sirt3 1 μM, 0.3 mM acyl peptide, 0.5 mM NAD, * = no inhibition at 100 μM
  IC50: > 100 µM
Sirt3; at 100 μM concentration
  inhibition of Sirt3: did not inhibit
Sirt5 [5]
  inhibition of Sirt5 (fluorescence) in fluorogenic assay: close to background level; also recorded: significant inhibition
Sirt1 [6]; Sirt1 1 μM, 0.3 mM acyl peptide, 0.5 mM NAD, * = no inhibition at 100 μM
  IC50: > 100 µM
Sirt1 [6]; at 100 μM concentration
  inhibition of Sirt1: did not inhibit

## H3K9 succinyl peptide: synthesized H3K9 succinyl lysine peptide, Sirt5 substrate (KQTARK(Suc)-{AMC})
Sirt5 [7]
  kcat: 0.029 ± 0.002 s⁻¹
Sirt5 [7]; read-out: Km for peptide
  Km: 41 ± 11 µM
Sirt5 Y102F
  Km: > 750 µM
Sirt5 H158Y
  Km: > 750 µM
Sirt5 R105M
  Km: > 750 µM

## KQTAR(SuK)-AMC (KQTARK(Suc)-{AMC})
Sirt5 [8]
  fluorescence with Sirt5: 3600 relative fluorescence unit
Sirt5 [9]; 1 μM Sirt5, 3 hrs
  hydrolysis by Sirt5: 10%
Sirt5 [9]; 5 μM Sirt5, 3 hrs
  hydrolysis by Sirt5: 60%

Source: patent US9932621B2, “Modulators for Sirt5 and assays for screening same” (CORNELL UNIVERSITY, priority 2010, dated 2018)
